The nature of data set [1]: Phase I clinical trial of AST-3424 in China: blood pharmacokinetics compared with US data. It is filed as in vivo, human. Particulars: Chinese and American patients, printed as 'almost lower than'.
A short description of data set [2]: Toxicokinetics (D1+D8/21 Days) in rats. Particulars: AST-3424 3, 10, 30 mg/kg on D1, D8, D22, D29. It is filed as in vivo, Sprague-Dawley (SD) rats.
Data set [3] in a line: Toxicokinetics (D1+D8/21 Days) in monkeys. Type of data set: in vivo, cynomolgus monkeys.
Data set [4] has as its system human lung cancer (H460-GFP) subcutaneous CDX model. Put plainly: Human lung cancer CDX efficacy model (QW×2 regimen). To be noted: 15 mg/kg, BIW×4, I.V.; P<0.01. Type of data set: in vivo, nude mice. Here is the method:
Images of tumor burden in mice were non-invasively collected twice a week by a Fluor Vivo Model 100 imaging system, and the mean value of tumor area in each group was calculated based on imaging analysis results. […] The data from this experiment are the data for the H460 model in Example 3-1 of the aforementioned Patent Application 2 (see Table 5 and Figure 5 of this application).

In data set [5] the test system is HuPrime® lung cancer LU5173 subcutaneous xenograft model. Particulars: day 32 after first administration, AST-3424 1 mg/kg QD×5, 16 days off. An excerpt:
(§1) For the experimental procedures and relevant evaluation indicators of the aforementioned solid tumor animal efficacy models, please refer to Examples 7, 8, and 9 in Patent Application 1, namely PCT/US2016/062114, with Publication No. WO2017/087428 (corresponding to Chinese Application CN201680044608.1, with Publication No. CN108290911B), Examples 3 and 4 in Patent Application 2, namely PCT/CN2021/078115, with Publication No. WO2022178821, and Research Literature 1. The aforementioned non-clinical animal efficacy models (PDX) mentioned in the present application are all similar to those in the aforementioned literatures, and the specific operation procedures thereof are not described herein again.
The LU5173 is a HuPrime® xenograft model established from a lung cancer (small cell lung carcinoma) tumor of a patient.
Efficacy was evaluated based on the relative tumor growth inhibition (TGI, %), and safety was evaluated based on animal body weight changes and mortality.

For data set [6], the system named is HuPrime® lung cancer LU5161 subcutaneous xenograft model. Particulars: day 29 after first administration, AST-3424 1 mg/kg QD×5, 16 days off.
Excerpt: as §1
LU5161 is a HuPrime® xenograft model established from a lung tumor (small cell lung cancer) of a patient.
(§2) Efficacy was evaluated based on the relative tumor growth inhibition rate (TGI, %), and safety was evaluated based on animal body weight changes and mortality.

The subject of data set [7] is HuPrime® pancreatic cancer PA2637 subcutaneous xenograft model. Particulars: Day 36 after first administration, AST-3424 1 mg/kg QD×5, 16 days off.
Excerpt: as §1
PA2637 is a HuPrime® xenograft model established from a pancreatic cancer tumor of a patient.
as §2

Data set [8] deals with HuPrime® pancreatic cancer PA9451 subcutaneous xenograft model. As to the kind of experiment: Pancreatic cancer PA9451 subcutaneous xenograft efficacy model. Type of data set: in vivo, BALB/c nude mice. To be noted: 50 mg/kg, QD×30.
The subject of data set [9] is HuPrime® pancreatic cancer PA1170 subcutaneous xenograft model. Put plainly: Pancreatic cancer PA1170 subcutaneous xenograft efficacy model. Type of data set: in vivo, BALB/c nude mice. Particulars: 50 mg/kg, QD×30.

Structures are written as SMILES.

Consider `O=P(O)(N1CC1)N1CC1` [AST-2660], for which the “concentrations after 8 hours” value in [1] is recorded as “lower than 1 ng/ml”. Further, in data set [2], the “exposure on Day 29 compared to Day 1” value was “decreased”. In addition, the entries for the “exposure to AST-2660 as % of the AST-3424 exposure” value in data set [3] (Day 1) and in [3] (Day 29) were 27.2% and 11.0%, respectively.
Take `CC(=O)O[C@H]1C(=O)[C@@]2(C)[C@H]([C@H](OC(=O)c3ccccc3)[C@]3(O)C[C@H](OC(=O)[C@H](O)[C@@H](NC(=O)c4ccccc4)c4ccccc4)C(C)=C1C3(C)C)[C@]1(OC(C)=O)CO[C@@H]1C[C@@H]2O` [Taxol, reference compound]: in [4], the TGI was found to be 64%.
With `O=P1(NCCCl)OCCCN1CCCl` (stereo not drawn) [ifosfamide, reference compound], the “TGI (%)” value in data set [5] (QD×5 (P < 0.001), ifosfamide 6.0 mg/kg QD×5/week for 2 weeks (p > 0.05)) was found to be 44.45%; in data set [6] (QD×5 (P < 0.001), ifosfamide 60 mg/kg QD×5/week for 2 weeks (p > 0.05)) it was 27.39%; in data set [7] (QD×5 (P < 0.001), ifosfamide 60 mg/kg QD×5/week for 2 weeks (no statistical difference)) it was 2.74%. Besides, the mean tumor volume in data set [5] (QD×5, ifosfamide 6.0 mg/kg QD×5/week for 2 weeks, vehicle 2276.68) is given as 1229.15 mm^3; in data set [6] (QD×5, ifosfamide 60 mg/kg QD×5/week for 2 weeks, negative control 2238.97), 1636.39 mm^3; in [7] (QD×5, ifosfamide 60 mg/kg QD×5/week for 2 weeks, vehicle 977.46) it was 938.33 mm^3.
With `O=C(c1cc(Cc2n[nH]c(=O)c3ccccc23)ccc1F)N1CCN(C(=O)C2CC2)CC1` [olaparib, reference compound], the “TGI (%)” value in data set [8] (Day 36, P < 0.001) is reported as 47.88%; in data set [9] (Day 30, P > 0.05), 57.66%. Moreover, the mean tumor volume in data set [8] (Day 36 after first administration) is reported as 344.84 mm^3; in data set [9] (Day 30 after first administration), 517.75 mm^3.

The values above are taken from patent EP4775209A1 (Ascentawits Pharmaceuticals, Ltd., priority 2023, dated 2025).
